The text below walks through data of US9616019B2, “Nanosuspension of a poorly soluble drug via microfluidization process” (Celgene Corporation, priority 2009, dated 2017).

This series can be described thus: Particle size distribution by laser diffraction particle size analyzer. It counts as physicochemical. The procedure:
The particle size distribution of the resultant suspensions can be measured using any instrumentation. An example is laser diffraction using a Cilas Particle Size Analyser 1190. The images of the particles can be taken using, for example, the microscope “Olympus”. The resolution rates can be determined, for example, by a pION μDISS Profiler.
An aqueous dispersion of cyclopropyl-N-{2-[(1S)-1-(3-ethoxy-4-methoxyphenyl)-2-(methylsulfonyl)ethyl]-3-oxoisoindoline-4-yl}carboxamide up to 200 mg/ml in 0.5% HPMC E5 were able to be processed through the Microfluidizer processor. […] By processing at 27K psi for 100 passes, the mean particle size by volume was reduced from 8.0 μm to 0.39 μm, while by processing at 15K psi, the mean size was 0.91 μm. The D90 of particle size by number was 0.09 μm.
Nanosuspensions were formed by initially stirring the micronized cyclopropyl-N-{2-[(1S)-1-(3-ethoxy-4-methoxyphenyl)-2-(methylsulfonyl)ethyl]-3-oxoisoindoline-4-yl}carboxamide in aqueous excipient solutions including PVP, CMC, HPMC, PEG, PEO, Transcutol, glycerin, and/or various surfactants for wetting and solubilization, followed by passing through a high-shear microfluidizer processor. The particle size distribution of the resultant suspensions was measured by a laser diffraction particle size analyzer. The images of the particles were taken using a microscope.
Aqueous dispersions of cyclopropyl-N-{2-[(1S)-1-(3-ethoxy-4-methoxyphenyl)-2-(methylsulfonyl)ethyl]-3-oxoisoindoline-4-yl}carboxamide up to 200 mg/ml in polymeric excipients were processed with this approach. The 200 mg/mL nanosuspension was physically stable at room temperature for 2 months, based on the images and particle size analysis. The D90 of particle size by number was 0.09 μm. […] Upon dilution from 200 mg/ml to 25 mg/ml with specific surfactants, the solubility increased 40 fold over 40 minutes.

Regarding `CCOc1cc([C@@H](CS(C)(=O)=O)N2Cc3cccc(NC(=O)C4CC4)c3C2=O)ccc1OC` [cyclopropyl-N-{2-[(1S)-1-(3-ethoxy-4-methoxyphenyl)-2-(methylsulfonyl)ethyl]-3-oxoisoindoline-4-yl}carboxamide], the “D90 of particle size by number” value is recorded as 0.09 μm. Besides, under “before microfluidization”, the “mean particle size by volume” value stood at 8.0 μm. The mean particle size (optimal process pressure and time) was found to be 0.05 μm. Moreover, the “mean particle size by volume” value (processing at 15K psi) stood at 0.91 μm. Where the note is “processing at 15K psi (Example 4)”, this compound registered a mean particle size of 0.08 μm. Besides, for the setting “processing at 27K psi for 100 passes, 0.5% HPMC E5”, the “mean particle size by volume” value stood at 0.39 μm. The compound also yielded a mean particle size (processing at 27K psi for 130 passes) of 0.05 µm.
